Source: paper PMC2607018, “Iodine Atoms: A New Molecular Feature for the Design of Potent Transthyretin Fibrillogenesis Inhibitors” (PLoS ONE, 2009)

molecular target: TTR variant Y78F (Homo sapiens, UniProt P02766, Y98F); test: Kinetic turbidity assay of acid induced fibril formation; format: biochemical; conditions: fibrillogenesis inhibition assay, effect of iodination; read-out: Inhibitory efficiency, rough screening (Figure 3, measure not given)
Excerpt: Two different parameters can be derived from this kinetic test. The IC50 value is the inhibitor concentration at which the initial rate of fibril formation is half than that in the absence of inhibitor. In turn, RA (%) can be defined as the percent reduction of fibril formation rate at high inhibitor concentration relative to the rate at zero concentration of tested compound.
An in vitro turbidimetric test in a high troughput mode was used to assess the fibrillogenesis inhibition potency of the compounds of the library. The mutant protein TTRY78F was incubated with various concentrations of test compounds in 96 well microplates. After lowering the pH of the solutions to 4.2, the incubation was extended for 1.5 h while recording the absorbance at 340 nm at 1 min intervals. […] (Figure S1).
The mutant Y78F TTR protein (0.4 mg.mL^-1) was incubated for 30 min (pH 7.6, 37 °C) with 6 concentrations of test compounds ranging from 0 to 40 µM in 96-well microplates.
IC50% value is the inhibitor concentration at which the initial rate of fibril formation is half of that in the absence of inhibitor. RA(%) is the percentage of reduction in fibril formation rate induced by a given concentration of test compound relative to the rate of experiments at zero concentration of test compound.

Row | SMILES | IC50
1 | CC(C(=O)O)c1ccc(-c2ccccc2)c(F)c1 (stereo not shown) [Flurbiprofen, reference compound] | > 100 µM
2 | O=C(O)c1ccccc1O [reference compound] | > 100 µM
3 | O=C(O)c1ccccc1Nc1cccc(C(F)(F)F)c1 [Flufenamic, reference compound] | 10.9 µM

same assay, conditions: inhibitor concentration at which the initial rate of fibril formation is half; Y78F TTR 0.4 mg/mL, pH 4.2, 37 °C; read-out: Kinetic turbidity assay IC50

Row | SMILES | IC50
4 | Oc1c(I)cc(I)cc1I [TIP, triiodophenol, reference compound] | 3.2 µM
5 | O=C(O)CCNC(=O)c1cc(-c2ccc(F)cc2F)ccc1O [22a] | > 50 µM
6 | O=C(O)CNC(=O)c1cc(-c2ccc(F)cc2F)cc(I)c1O [8b, N-[2’-,4’-difluoro-4-hydroxy-5-iodo-[1,1’]-biphenyl-3-carbonyl]-glycine] | 11.1 µM
7 | COC(=O)[C@H](C)NC(=O)c1cc(-c2ccc(F)cc2F)cc(I)c1O [10b, N-[2’,4’-difluoro-4-hydroxy-5-iodo-[1,1’]-biphenyl-3-carbonyl] -L-alanine methyl ester] | 5.5 µM
8 | CC(C)CC(NC(=O)c1cc(-c2ccc(F)cc2F)ccc1O)C(=O)OC(C)(C)C [13a, N-[2’,4’-difluoro-4-hydroxy-[1,1’]-biphenyl-3-carbony]-L-leucine tert-butyl ester] | > 50 µM
9 | CC(=O)Oc1c(I)cc(-c2ccc(F)cc2F)cc1C(=O)O [7b, 4-Acetoxy-2’,4’-difluoro-5-iodo-[1,1’]-biphenyl-3-carboxylic acid] | 4.8 µM
10 | C[C@H](NC(=O)c1cc(-c2ccc(F)cc2F)ccc1O)C(=O)O [9a, N-[2’,4’-difluoro-4-hydroxy-[1,1’]-biphenyl-3-carbonyl]-L-alanine] | > 50 µM
11 | CCOC(=O)[C@H](C)NC(=O)c1cc(-c2ccc(F)cc2F)ccc1O [11a, N-[2’,4’-difluoro-4-hydroxy-[1,1’]-biphenyl-3-carbonyl]-L-alanine ethyl ester] | > 50 µM
12 | CC(C)(C)OC(=O)[C@H](CC(N)=O)NC(=O)c1cc(-c2ccc(F)cc2F)ccc1O [21a, N-[2’,4’-difluoro-4-hydroxy-[1,1’]-biphenyl-3-carbonyl]-L-asparagine tert-butyl ester] | > 50 µM
13 | NC(=O)CC(NC(=O)c1cc(-c2ccc(F)cc2F)cc(I)c1O)C(=O)O [20b, N-[2’-,4’-difluoro-4-hydroxy-5-iodo-[1,1’]-biphenyl-3-carbonyl]-L-asparagine] | 7.7 µM
14 | NC(Cc1ccc(Oc2ccc(O)cc2)cc1)C(=O)O (stereo not shown) [T0, thyronine, reference compound] | > 50 µM
15 | COC(=O)C(CC(=O)O)NC(=O)c1cc(-c2ccc(F)cc2F)ccc1O [17a, N-[2’,4’-difluoro-4-hydroxy-[1,1’]-biphenyl-3-carbonyl]-L-aspartic α-methyl ester] | > 50 µM
16 | CC(C)(C)OC(=O)CC(NC(=O)c1cc(-c2ccc(F)cc2F)cc(I)c1O)C(=O)O [18b, N-[2’,4’-difluoro-4-hydroxy-5-iodo-[1,1’]-biphenyl-3-carbonyl]-L-aspartic β-tert-butyl ester] | 6 µM
17 | NC(=O)c1cc(-c2ccc(F)cc2F)ccc1O [2a, 2’,4’-difluoro-4-hydroxy-[1,1’]-biphenyl-3-carboxamide] | > 50 µM
18 | COC(=O)[C@H](CO)NC(=O)c1cc(-c2ccc(F)cc2F)cc(I)c1O [15b, N-[2’,4’-difluoro-4-hydroxy-5-iodo-[1,1’]-biphenyl-3-carbonyl]-L-serine methyl ester] | 7.2 µM
19 | Nc1ccc(-c2ccc(F)cc2F)cc1C(=O)O [5a, 2’,4’-difluoro-4-amino-[1,1’]-biphenyl-3-carboxylic acid] | > 50 µM
20 | COC(=O)c1cc(-c2ccc(F)cc2F)cc(I)c1N [6b, 2’,4’-difluoro-4-amino-3-iodo-[1,1’]-biphenyl-3-carboxylic acid methyl ester] | 7.5 µM

Row | SMILES | IC50
21 | CC(C)CC(NC(=O)c1cc(-c2ccc(F)cc2F)cc(I)c1O)C(=O)OC(C)(C)C [13b, N-[2’-,4’-difluoro-4-hydroxy-5-iodo-[1,1’]-biphenyl-3-carbonyl)-L-leucine tert-butyl ester] | > 50 µM
22 | O=C(O)CC(NC(=O)c1cc(-c2ccc(F)cc2F)cc(I)c1O)C(=O)O [16b, N-[2’-,4’-difluoro-4-hydroxy-5-iodo-[1,1’]-biphenyl-3-carbonyl]-L-aspartic] | 5.2 µM
23 | CCOC(=O)c1cc(-c2ccc(F)cc2F)cc(I)c1O [4b] | 6.9 µM
24 | NC(=O)C[C@H](NC(=O)c1cc(-c2ccc(F)cc2F)ccc1O)C(=O)O [20a, N-[2’,4’-difluoro-4-hydroxy-[1,1’]-biphenyl-3-carbonyl]-L-asparagine] | > 50 µM
25 | CC(C)C[C@H](NC(=O)c1cc(-c2ccc(F)cc2F)ccc1O)C(=O)O [12a, N-[2’,4’-difluoro-4-hydroxy-[1,1’]-biphenyl-3-carbonyl]-L-leucine] | > 50 µM
26 | O=C(N[C@@H](CO)C(=O)O)c1cc(-c2ccc(F)cc2F)cc(I)c1O [14b, N-[2’,4’-difluoro-4-hydroxy-5-iodo-[1,1’]-biphenyl-3-carbonyl]–L-serine] | 3.7 µM
27 | COC(=O)C(CC(=O)OC(C)(C)C)NC(=O)c1cc(-c2ccc(F)cc2F)ccc1O [19a, N-[2-,4’-difluoro-4-hydroxy-[1,1’]-biphenyl-3-carbonyl]-L-aspartic α-methyl ester and β-tert-butyl ester] | > 50 µM
28 | COC(=O)c1cc(-c2ccc(F)cc2F)cc(I)c1O [3b, 2’,4’-difluoro-4-hydroxy-5-iodo-[1,1’]-biphenyl-3-carboxylic methyl ester] | 6.1 µM
29 | COC(=O)C(CC(=O)O)NC(=O)c1cc(-c2ccc(F)cc2F)cc(I)c1O [17b, N-[2’,4’-difluoro-4-hydroxy-5-iodo-[1,1’]-biphenyl-3-carbonyl]-L-aspartic α-methyl ester] | 4.1 µM
30 | COC(=O)[C@H](C)NC(=O)c1cc(-c2ccc(F)cc2F)ccc1O [10a, N-[2’,4’-difluoro-4-hydroxy-[1,1’]-biphenyl-3-carbonyl]-L-alanine methyl ester] | > 50 µM
31 | O=C(O)C[C@H](NC(=O)c1cc(-c2ccc(F)cc2F)ccc1O)C(=O)O [16a, N-[2’,4’-difluoro-4-hydroxy-[1,1’]-biphenyl-3-carbonyl]-L-aspartic] | > 50 µM
32 | CCOC(=O)c1cc(-c2ccc(F)cc2F)ccc1O [4a, 2’,4’-difluoro-4-hydroxy-[1,1’]-biphenyl-3-carboxylic acid ethyl ester] | > 50 µM
33 | COC(=O)CCNC(=O)c1cc(-c2ccc(F)cc2F)ccc1O [23a, N-[2’,4’-difluoro-4-hydroxy-[1,1’]-biphenyl-3-carbonyl]-β-alanine methyl ester] | > 50 µM
34 | COC(=O)c1cc(-c2ccc(F)cc2F)ccc1O [3a, 2’,4’-difluoro-4-hydroxy-[1,1’]-biphenyl-3-carboxylic methyl ester] | > 50 µM
35 | CC(=O)Oc1ccc(-c2ccc(F)cc2F)cc1C(=O)O [7a, 4-Acetoxy-2’,4’-difluoro-[1,1’]-biphenyl-3-carboxylic acid] | > 50 µM
36 | O=C(O)CNC(=O)c1cc(-c2ccc(F)cc2F)ccc1O [8a, N-[2’,4’-difluoro-4-hydroxy-[1,1’]-biphenyl-3-carbonyl]-glycine] | > 50 µM
37 | CC(C)(C)OC(=O)CC(NC(=O)c1cc(-c2ccc(F)cc2F)ccc1O)C(=O)O [18a, N-[2’,4’-difluoro-4-hydroxy-[1,1’]-biphenyl-3-carbonyl]-L-aspartic β-tert-butyl ester] | 38.3 µM
